This note sets out measurements from patent US20230210999A1, “TARGETED PROTEASE DEGRADATION (TED) PLATFORM” (EUBULUS BIOTHERAPEUTICS INC., priority 2020, published 2023).

The structures appear in SMILES notation. A value given as a limit tells only on which side of the number the result lay.

For orientation: IC50 means the point on the concentration scale where inhibition reaches its midpoint.

One test deals with MV4;11 cells. Kind of test: Cell proliferation experiment (Alamar blue, 72 h), MV4;11. It is filed as cell-based, human. Conditions: Homo sapiens, MV4-11, MV4;11 cells; read-out: Inhibitory activity IC50 on MV4;11. The gist of the method: (§1)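 Single-cell suspensions from log-phase cultures, passaged at least 2 generations, are seeded into 96-well plates and given compound in complete medium. Following 72 h, fluorescence with Alamar blue is recorded and fitted for IC50.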
For the compound `CNC(=O)c1ccccc1Nc1nc(Nc2ccc(N3CCN(C(=O)NCCCCOCCCNCCC(=O)Nc4ccc5c(c4)CN(C4CCC(=O)NC4=O)C5=O)CC3)cc2)ncc1Cl` (stereo not drawn) [UB-181042], the IC50 lay within 10 to 100 nM.
Regarding `CNC(=O)c1ccccc1Nc1nc(Nc2ccc(N3CCN(C(=O)NCCOCCOCCNCCC(=O)Nc4cccc5c4CN(C4CCC(=O)NC4=O)C5=O)CC3)cc2)ncc1Cl` (stereo not drawn) [UB-181043], the IC50 was below 10 nM.
Turning to `CNC(=O)c1ccccc1Nc1nc(Nc2ccc(N3CCN(C(=O)NCCNCCOCCOCCC(=O)Nc4ccc5c(c4)CN(C4CCC(=O)NC4=O)C5=O)CC3)cc2)ncc1Cl` (stereo not drawn) [UB-181044], the IC50 lay within 10 to 100 nM.
`CNC(=O)c1ccccc1Nc1nc(Nc2ccc(N3CCN(C(=O)NCCOCCOCCCNCC(=O)Nc4ccc5c(c4)CN(C4CCC(=O)NC4=O)C5=O)CC3)cc2)ncc1Cl` (stereo not drawn) [UB-181047]: the IC50 was in the range of 10 to 100 nM.
On to `CNC(=O)c1ccccc1Nc1nc(Nc2ccc(N3CCN(C(=O)NCCOCCNCCOCCC(=O)Nc4ccc5c(c4)CN(C4CCC(=O)NC4=O)C5=O)CC3)cc2)ncc1Cl` (stereo not drawn) [UB-181050], for which the IC50 lay within 100 to 1000 nM.
Consider `CNC(=O)c1ccccc1Nc1nc(Nc2ccc(N3CCN(C(=O)NCCOCCNCCOCCC(=O)Nc4cccc5c4CN(C4CCC(=O)NC4=O)C5=O)CC3)cc2)ncc1Cl` (stereo not drawn) [UB-181051], for which the IC50 is 10 to 100 nM.

The test system of the next test is PC-3. Briefly: Cell proliferation experiment, PC-3. It is filed as cell-based, human. The note with it: Homo sapiens, PC-3, PC-3 cells; read-out: Inhibitory activity IC50 on PC-3. The protocol:
(§2) Reagents: RPMI-1640 medium, McCoy's 5A medium, IMDM medium, MEM medium, L-15 medium, fetal bovine serum. Penicillin-Streptomycin double antibody, trypsin, etc., 2-mercaptoethanol, NEAA, pyruvate, etc.
(§3) The cells were cultured in conventional ways, and the cells should be passed at least 2 generations before plating. Cells at the logarithmic growth phase were collected, prepared into single cell suspensions and counted. The concentration of cells was adjusted to the desired concentration, and cells were inoculated into a 96-well cell culture plate at 100 μl per well. 100 μL of complete medium of the test compound were added to each well, set up 2 duplicate wells for each concentration, and diluted with a 5-fold gradient, and continued to culture for 72 h. All cells were subjected to IC50 test for corresponding samples. The experimental results are shown in Test Example 4.
(§4) The fluorescence intensity of each well was detected using the Alarm blue method, and IC50 was calculated.
(§5) IC50 was calculated according to the following formula:
(§6) Y=Max+(Min−Max)/[1+(X/IC50)×Slope]
(§7) wherein Min, Max and Slope represent the minimum, maximum and slope respectively.
Consider `CNC(=O)c1ccccc1Nc1nc(Nc2ccc(N3CCN(C(=O)NCCCCOCCCNCCC(=O)Nc4ccc5c(c4)CN(C4CCC(=O)NC4=O)C5=O)CC3)cc2)ncc1Cl` (stereo not drawn) [UB-181042], for which the concentration for half-maximal inhibition (IC50) was above 1000 nM.
As for `CNC(=O)c1ccccc1Nc1nc(Nc2ccc(N3CCN(C(=O)NCCOCCOCCNCCC(=O)Nc4cccc5c4CN(C4CCC(=O)NC4=O)C5=O)CC3)cc2)ncc1Cl` (stereo not drawn) [UB-181043], the half-maximal inhibitory concentration (IC50) is above 1000 nM.
Regarding `CNC(=O)c1ccccc1Nc1nc(Nc2ccc(N3CCN(C(=O)NCCNCCOCCOCCC(=O)Nc4ccc5c(c4)CN(C4CCC(=O)NC4=O)C5=O)CC3)cc2)ncc1Cl` (stereo not drawn) [UB-181044], the IC50 is above 1000 nM.
For the compound `CNC(=O)c1ccccc1Nc1nc(Nc2ccc(N3CCN(C(=O)NCCOCCOCCCNCC(=O)Nc4ccc5c(c4)CN(C4CCC(=O)NC4=O)C5=O)CC3)cc2)ncc1Cl` (stereo not drawn) [UB-181047], the IC50 was above 1000 nM.
As for `CNC(=O)c1ccccc1Nc1nc(Nc2ccc(N3CCN(C(=O)NCCOCCNCCOCCC(=O)Nc4ccc5c(c4)CN(C4CCC(=O)NC4=O)C5=O)CC3)cc2)ncc1Cl` (stereo not drawn) [UB-181050], the IC50 is above 1000 nM.
The same measure, in the same setting: with `CNC(=O)c1ccccc1Nc1nc(Nc2ccc(N3CCN(C(=O)NCCOCCNCCOCCC(=O)Nc4cccc5c4CN(C4CCC(=O)NC4=O)C5=O)CC3)cc2)ncc1Cl` (stereo not drawn) [UB-181051] the figure was above 1000 nM.

A further test concerns NCIH82 cells. Kind of test: Cell proliferation experiment, NCI-H82. Conditions: Homo sapiens, NCI-H82, NCI-H82 cells; read-out: Inhibitory activity IC50 on NCI-H82. It is filed as cell-based, human. The method, boiled down:
as §1
For the compound `CNC(=O)c1ccccc1Nc1nc(Nc2ccc(N3CCN(C(=O)NCCCCOCCCNCCC(=O)Nc4ccc5c(c4)CN(C4CCC(=O)NC4=O)C5=O)CC3)cc2)ncc1Cl` (stereo not drawn) [UB-181042], the IC50 was in the range of 100 to 1000 nM.
Take `CNC(=O)c1ccccc1Nc1nc(Nc2ccc(N3CCN(C(=O)NCCOCCOCCNCCC(=O)Nc4cccc5c4CN(C4CCC(=O)NC4=O)C5=O)CC3)cc2)ncc1Cl` (stereo not drawn) [UB-181043]: the IC50 lay in the range of 100 to 1000 nM.
Regarding `CNC(=O)c1ccccc1Nc1nc(Nc2ccc(N3CCN(C(=O)NCCNCCOCCOCCC(=O)Nc4ccc5c(c4)CN(C4CCC(=O)NC4=O)C5=O)CC3)cc2)ncc1Cl` (stereo not drawn) [UB-181044], the IC50 lay within 100 to 1000 nM.
Still for that read-out and setting: then `CNC(=O)c1ccccc1Nc1nc(Nc2ccc(N3CCN(C(=O)NCCOCCOCCCNCC(=O)Nc4ccc5c(c4)CN(C4CCC(=O)NC4=O)C5=O)CC3)cc2)ncc1Cl` (stereo not drawn) [UB-181047], with 100 to 1000 nM; and `CNC(=O)c1ccccc1Nc1nc(Nc2ccc(N3CCN(C(=O)NCCOCCNCCOCCC(=O)Nc4ccc5c(c4)CN(C4CCC(=O)NC4=O)C5=O)CC3)cc2)ncc1Cl` (stereo not drawn) [UB-181050], with 100 to 1000 nM; and `CNC(=O)c1ccccc1Nc1nc(Nc2ccc(N3CCN(C(=O)NCCOCCNCCOCCC(=O)Nc4cccc5c4CN(C4CCC(=O)NC4=O)C5=O)CC3)cc2)ncc1Cl` (stereo not drawn) [UB-181051], with above 1000 nM.

The next test deals with MDA-MB-231 cells. Kind of test: Cell proliferation experiment, MDA-MB-231. The note with it: Homo sapiens, MDA-MB-231, MDA-MB-231 cells; read-out: Inhibitory activity IC50 on MDA-MB-231. It is filed as cell-based, human. Here is the method: as §2, §3, §4, §5, §6, §7
With `CNC(=O)c1ccccc1Nc1nc(Nc2ccc(N3CCN(C(=O)NCCCCOCCCNCCC(=O)Nc4ccc5c(c4)CN(C4CCC(=O)NC4=O)C5=O)CC3)cc2)ncc1Cl` (stereo not drawn) [UB-181042], the concentration for half-maximal inhibition (IC50) is above 1000 nM.
As to `CNC(=O)c1ccccc1Nc1nc(Nc2ccc(N3CCN(C(=O)NCCOCCOCCNCCC(=O)Nc4cccc5c4CN(C4CCC(=O)NC4=O)C5=O)CC3)cc2)ncc1Cl` (stereo not drawn) [UB-181043], the concentration for half-maximal inhibition (IC50) was above 1000 nM.
For the compound `CNC(=O)c1ccccc1Nc1nc(Nc2ccc(N3CCN(C(=O)NCCNCCOCCOCCC(=O)Nc4ccc5c(c4)CN(C4CCC(=O)NC4=O)C5=O)CC3)cc2)ncc1Cl` (stereo not drawn) [UB-181044], the IC50 was above 1000 nM.
On to `CNC(=O)c1ccccc1Nc1nc(Nc2ccc(N3CCN(C(=O)NCCOCCOCCCNCC(=O)Nc4ccc5c(c4)CN(C4CCC(=O)NC4=O)C5=O)CC3)cc2)ncc1Cl` (stereo not drawn) [UB-181047], for which the IC50 was above 1000 nM.
For `CNC(=O)c1ccccc1Nc1nc(Nc2ccc(N3CCN(C(=O)NCCOCCNCCOCCC(=O)Nc4ccc5c(c4)CN(C4CCC(=O)NC4=O)C5=O)CC3)cc2)ncc1Cl` (stereo not drawn) [UB-181050], the IC50 is above 1000 nM.
Consider `CNC(=O)c1ccccc1Nc1nc(Nc2ccc(N3CCN(C(=O)NCCOCCNCCOCCC(=O)Nc4cccc5c4CN(C4CCC(=O)NC4=O)C5=O)CC3)cc2)ncc1Cl` (stereo not drawn) [UB-181051], for which the IC50 is above 1000 nM.
